This note sets out measurements from PubChem BioAssay (NCI).

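How tested: cells in 96-well plates exposed to compound for 48 hours at five concentrations. Here, GI50 denotes the concentration required for 50% inhibition of growth. At the TGI there is no net growth.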

Holding throughout (assay): growth of human tumour cells (NCI), 48 h
Assay [1] relates to MALME-3M melanoma.
The test system of assay [2] is 786-0 renal.
The test system of assay [3] is SNB-19 CNS.
Assay [4] has as its system NCI-H460 lung.
The test system of assay [5] is RPMI-8226 leukemia.
Assay [6] has as its system HOP-92 NSCLC.
Assay [7] has as its system HOP-62 NSCLC.
Assay [8] deals with SF-539 CNS.
Assay [9] concerns UACC-257 melanoma.

Take `CC(=O)[O-].CC(=O)[O-].[NH2-].[Pt+2].c1ccc2cnccc2c1`: the GI50 in [1] was 12.9 µM; in [2], 37.9 µM; in [3] it was more than 100 µM; in assay [4], 26.2 µM; in assay [5], 27.7 µM; in [6], 16.2 µM. In addition, the GI50 in assay [7] was 74.5 µM; in [8], 4.83 µM. For the same compound, the TGI in [1] was more than 100 µM; in [2], more than 100 µM; in assay [3], more than 100 µM; in assay [4] it was more than 100 µM; in [5] it was more than 100 µM; in [6], 90.6 µM. Further, the TGI in [7] is more than 100 µM; in assay [8] it was 43.8 µM; in [9], 6.49 µM.
On to `O=NNc1nc(-c2cccnc2)nc2ccccc12`, for which the TGI in [2], in assay [3], in assay [4], in assay [7], in assay [8] and in assay [9] was more than 100 µM in each case.
As for `N[C@H](C(=O)O)[C@H](Cl)CC(=O)O`, the TGI in assay [1], in [2], in [3], in assay [4], in assay [6] and in assay [7] was more than 100 µM throughout. In addition, the TGI in assay [8] and in assay [9] was more than 100 µM throughout.
As for `O=C(O)c1cc(=O)c2[nH]c3ccccc3c2s1`, the TGI in assay [1], in [2], in assay [3], in [4], in assay [5] and in assay [6] was more than 100 µM in each case. The TGI in assay [7] and in assay [9] was more than 100 µM in each case.
As for `C[C@@H]1COCCN1c1cc(C2(S(C)(=N)=O)CC2)nc(-c2ccnc3[nH]ccc23)n1` (some centres undefined), the GI50 in assay [1] was 5.55 µM; in [2] it was 1.25 µM; in [3], 3.92 µM; in [4] it was 1.07 µM; in assay [5], 5.73 µM; in [6] it was 2.49 µM. Besides, the results for the GI50 in assay [7], in [8] and in [9] were 2.94 µM, 0.86 µM and 11.7 µM, respectively. The TGI in [1] is 34 µM; in assay [2], 96.8 µM; in [3] it was 42.2 µM; in [4], 20.6 µM; in assay [5], 36.1 µM; in assay [6] it was 31.6 µM. In addition, the TGI in assay [7] is 36.1 µM; in assay [8], 3.5 µM; in [9], 52.7 µM.
For the compound `CC(=O)OCC1OC(n2ccc(=O)[nH]c2=O)C(OC(C)=O)C1OC(C)=O` (centres undefined), the GI50 in [1], in assay [2], in [3], in assay [4], in assay [5] and in [6] was more than 100 µM each time. In addition, the GI50 in assay [7], in [8] and in assay [9] was more than 100 µM throughout. Moreover, the TGI in assay [1], in assay [2], in [3], in assay [4], in assay [5] and in assay [6] was more than 100 µM throughout. The TGI in assay [7], in [8] and in assay [9] was more than 100 µM in each case.
On to `NNC(=O)CCC(=O)NC1C2CC3CC(C2)CC1C3` (centres undefined), for which the TGI in assay [1], in assay [2], in assay [3], in assay [4], in [5] and in assay [6] was more than 100 µM throughout. In addition, the TGI in assay [7], in assay [8] and in assay [9] was more than 100 µM each time.
In the case of `CCc1cc(O)c(Cl)c(C)c1Cl`, the TGI in [1] was 42.7 µM; in assay [2], 30.8 µM; in assay [3], 95.6 µM; in [4] it was 33.7 µM; in [5], 42.3 µM; in assay [6], 33.7 µM. Moreover, the results for the TGI in assay [7], in assay [8] and in [9] were 33.2 µM, 34.8 µM and 35.6 µM, respectively.
As to `COc1ccc(-c2cn(-c3ccccc3)c(-c3ccccc3)n2)cc1OC`, the GI50 in assay [1] is 9.17 µM; in [2] it was 3.56 µM; in [3], 7.5 µM; in assay [4], 3.57 µM; in assay [5] it was 1.31 µM; in [6], 1.82 µM. Also, the figures for the GI50 in [7], in assay [8] and in [9] were 4.44 µM, 2.14 µM and 4.84 µM, respectively. In addition, the TGI in [1] came out at 22.7 µM; in [2], 13.5 µM; in [3], 21.1 µM; in assay [4], 14.9 µM; in assay [5], 3.59 µM; in assay [6], 10.8 µM. For the same compound, the values for the TGI in [7], in assay [8] and in assay [9] were 17.9 µM, 6.16 µM and 16.8 µM, respectively.
Turning to `NC(C(=O)[O-])C(=O)[O-].NC1CCCCC1N.[Pt+4]`, the GI50 was 0.294 µM in assay [1]; 5.79 µM in [2]; 6.54 µM in assay [3]; 2.29 µM in assay [4]; 0.957 µM in assay [5]; 8.45 µM in assay [7]. The results for the GI50 in assay [8] and in [9] were 5.36 µM and more than 100 µM, respectively. The TGI in assay [1] is 2.92 µM; in [2], more than 100 µM; in [3], more than 100 µM; in [4], 14.7 µM; in assay [5], 19.2 µM; in assay [7], more than 100 µM. The TGI in assay [8] and in [9] was more than 100 µM in each case.
Regarding `CC1S(=O)(=O)OCCOS1(=O)=O`, the TGI in assay [1], in [2], in assay [3], in [4], in assay [5] and in [6] was more than 100 µM each time. Moreover, the TGI in assay [7], in assay [8] and in [9] was more than 100 µM each time.
Turning to `COc1ccc(-c2cncn2-c2ccc(OC)cc2)cc1`, the GI50 in assay [2] was 21.9 µM; in assay [4] it was 15.6 µM; in [5] it was 10.9 µM; in assay [6], 23 µM; in assay [7] it was 22.8 µM; in assay [8] it was 11.2 µM. Besides, in assay [9], the GI50 is 21.4 µM. For the same compound, the TGI in assay [2] came to 49.1 µM; in [4], 48.4 µM; in [5], 32.5 µM; in [6] it was 84.8 µM; in assay [7], 67.4 µM; in assay [8], 29.2 µM. In addition, in assay [9], the TGI was 62.2 µM.
Regarding `COc1cccc(C(=O)C2C(=O)N(C)CCc3ccccc32)c1OC` (centres undefined), the TGI in assay [1], in assay [2], in assay [3], in assay [4], in assay [5] and in assay [6] was more than 100 µM in each case. The TGI in assay [7] and in assay [9] was more than 100 µM each time.
In the case of `COc1ccc(O)c(C#N)c1C#N`, the TGI in assay [1], in assay [2], in assay [3], in assay [4], in [5] and in assay [7] was more than 100 µM throughout. In addition, the TGI in assay [8] and in assay [9] was more than 100 µM each time.
Regarding `Clc1nc(Cl)c2ncn(Cc3ccc(COc4cccc(OCc5ccc(Cn6cnc7c(Cl)nc(Cl)nc76)cc5)c4)cc3)c2n1`, the GI50 in assay [1] is 73.1 µM; in assay [2] it was 36.2 µM; in assay [3], more than 100 µM; in assay [4], more than 100 µM; in [5], 9.5 µM; in assay [6], 36.2 µM. The GI50 in assay [7] is 63.4 µM; in assay [8], more than 100 µM; in assay [9], 24.9 µM. Moreover, the TGI in assay [1], in [2], in assay [3], in assay [4], in assay [5] and in [6] was more than 100 µM in each case. Further, the TGI in [7], in assay [8] and in [9] was more than 100 µM each time.
In the case of `COc1cc(/C=C/C(=O)c2sc(Nc3ccccc3)nc2C)ccc1O`, the TGI in assay [1], in assay [2], in assay [3], in assay [4], in assay [5] and in [6] was more than 100 µM each time. The TGI in assay [7], in assay [8] and in [9] was more than 100 µM in each case.
Consider `CCCCCCCCCCCCCC(=O)CBr`, for which the TGI in assay [1] worked out at 23.6 µM; in [2], 11.3 µM; in assay [3] it was 33.7 µM; in assay [4] it was 35.3 µM; in assay [5], 4.24 µM; in [6] it was 6.43 µM. The TGI in assay [7] turned out to be 50.6 µM; in assay [8] it was 30.7 µM; in assay [9], 17.7 µM.
As to `COc1nc2nccc-2c2occn12`, the TGI in assay [1], in assay [2], in assay [3], in assay [4], in assay [5] and in assay [6] was more than 100 µM each time. For the same compound, the TGI in [7], in [8] and in assay [9] was more than 100 µM in each case.
As to `COc1cc([C@@H]2c3cc4c(cc3[C@@H](NC(=O)c3ccccc3)C3COC(=O)[C@@H]32)OCO4)cc(OC)c1O` (some centres undefined), the TGI in assay [1] was 26.6 µM; in assay [2] it was 21.9 µM; in assay [3] it was more than 100 µM; in assay [4] it was 15.2 µM; in assay [5], 21.8 µM; in assay [6], 87.9 µM. The TGI in [7] came out at 13 µM; in assay [8], 24.8 µM; in assay [9], 48.1 µM.
Turning to `CN(C)CCOc1ccc2c(c1)C/C(=C/c1ncc([N+](=O)[O-])n1C)C2=O`, the TGI in assay [1] is 5.23 µM; in assay [2], 26.4 µM; in [3], 15.3 µM; in [4], 4.05 µM; in assay [5] it was 4.46 µM; in [6], 5.77 µM. The TGI was found to be 11.4 µM in [7], 21.2 µM in assay [8] and 14.7 µM in [9].
On to `CCOC(=O)C(=O)Nc1c(C)cccc1C`, for which the TGI in assay [1], in assay [2], in assay [3], in assay [4], in assay [5] and in [6] was more than 100 µM throughout. For the same compound, the TGI in assay [7], in assay [8] and in assay [9] was more than 100 µM in each case.
`O=C1C2=C(c3ccccc31)C(c1ccccc1)NC(=S)N2` (centres undefined): the TGI in assay [1] was more than 100 µM; in assay [2], 85 µM; in assay [3] it was more than 100 µM; in [4], more than 100 µM; in assay [5], more than 100 µM; in assay [6], 97.1 µM. The TGI in assay [7] was more than 100 µM; in assay [8] it was 46.3 µM; in assay [9], more than 100 µM.
For `S=c1[nH]c2ccc(Br)cc2c(=S)n1-c1ccccc1`, the TGI was 32.1 µM in assay [1]; 96.8 µM in assay [2]; more than 100 µM in [3]; 45.2 µM in assay [4]; 56.7 µM in [5]; 78.5 µM in assay [6]. Also, the TGI in assay [7] is 47 µM; in assay [8] it was 44.4 µM; in [9] it was 36.9 µM.
For `CC(=O)Oc1ccc(O)c(O)c1C/C=C(\C)CC/C=C(\C)CC/C=C(\C)CCC=C(C)C`, the TGI in assay [1] worked out at 0.782 µM; in [2], 2.83 µM; in assay [3], 2.8 µM; in assay [4] it was 1.31 µM; in assay [6], 0.886 µM; in assay [7], 2.81 µM. Further, the TGI in assay [8] stood at 1.62 µM; in [9] it was 2.26 µM.
Regarding `CC(=O)c1cc([N+](=O)[O-])ccc1OCC(=O)O`, the TGI in assay [1], in assay [2], in [3], in assay [4], in assay [5] and in [6] was more than 100 µM in each case. The TGI in assay [7], in [8] and in [9] was more than 100 µM throughout.
With `Cn1nc(-c2ccccc2)c(C(=O)/C=C/c2ccccc2)c(N2CCOCC2)c1=O`, the TGI in assay [2] is 32.4 µM; in assay [4] it was 54.7 µM; in assay [5], 59.1 µM; in [6], 27.8 µM; in assay [7] it was more than 100 µM; in [8], 39.5 µM.
